Patent US20180036295A1, “METHODS FOR TREATING PROTEINOPATHIES” (Genzyme Corporation, priority 2015, published 2018)

Assays:
Type in all cases: in vivo, mouse
[1] = test system: protein aggregates (ubiquitin, α-synuclein and/or protein tau); test: Protein aggregation in brains of Gba1^D409V/D409V mice with Compound 2 (Example 35); details: diet containing Compound 2
Description: Wild-type (WT) and Gba1^D409V/D409V mice are fed the control diet or a diet containing a quinuclidine compound substantially as described in Example 27, except that the compound administered is Compound 2.
The accumulation of proteins (ubiquitin, α-synuclein and protein tau) is determined by hippocampal quantification and protein immuoreactivity as described in Example 27.

Gba1^D409V/D409V mice [2] = test: NOR and FC tests in Gba1^D409V/D409V mice with Compound 2 (Example 34); details: diet containing Compound 2
Description: Gba1^D409V/D409V mice are bred and treated substantially as described in Example 24. Mice are fed a control diet or a diet containing a quinuclidine compound substantially as described in Example 25, except that the compound administered is Compound 2.
The NOR test and the FC test are performed substantially as described in Example 25.

[3] = test system: mice overexpressing A53T α-synuclein; test: Fear conditioning (FC) tests in A53T mice; details: eight months of age
[4] = test system: protein aggregates (ubiquitin, α-synuclein and/or protein tau); test: Protein aggregation in brains of post-symptomatic Gba1^D409V/D409V mice (Example 33); details: administration initiated after symptoms of cognitive impairment, approximately 6 months of age
Description: Wild-type (WT) and Gba1^D409V/D409V mice are bred and treated substantially as described in Example 27, except that drug administration is initiated when animals are symptomatic for cognitive impairment, e.g. at approximately 6 months of age.
The accumulation of proteins (ubiquitin, α-synuclein and protein tau) is determined by hippocampal quantification and protein immunoreactivity substantially as described in Example 27.

[5] = test system: mice overexpressing A53T α-synuclein; test: Novel object recognition (NOR) test in A53T mice; details: A53T mice dosed from 6 weeks of age, tested at 4.5 months; FIG. 3
human A53T-α-synuclein = test: Subcellular localization of α-synuclein in cortical tissue homogenates of A53T mice (serial fractionation, ELISA); details: cortex, 8 months of age
Gba1^D409V/D409V mice [6] = test: Fear conditioning (FC) tests in Gba1^D409V/D409V mice; details: ten month-old mice, 60 mg/kg/day in food
Excerpt: (§1) Gba1^D409V/D409V mice were bred and treated according to Example 24.
(§2) Mice were fed the control diet or the Compound 1 diet as described in Example 24.
Ten month-old wild type (WT) and Gba1^D409V/D409V mice were subjected to FC memory tests. For the FC tests, mice were trained in four of the Med Associates® Near Infrared Fear Conditioning System chambers (St. Albans, Vt.). Mice were placed in the contextual fear chamber in “Context A,” which consists of lighting, a neutral background and a stainless steel grid floor. The mice were trained with a 3-trial delay-cued protocol as defined below. The mice were first given 2 minutes to explore the chamber in Context A before a conditioned stimulus (CS) of a 2000 Hz cue was given. Thirty seconds later a one second unconditioned stimulus (US) of 0.6 mA foot shock was applied. With an inter-trial interval (ITI) of 30 sec, this US-CS response was repeated three times. After a 24 hour retention period, mice were brought back to the testing room and habituated to the room for 1 hour. The mice were again placed in Context A for 5 minutes and freezing to the context was recorded. Freezing (defined as the lack of movement, except for respiration) was recorded using a near-infrared camera system. […] Again, freezing to the novel environment and the cue were assessed with the near infrared camera system. […]

[7] = Tissue distribution of Compound 1 in brain and liver after oral administration in food; details: Gba1^D409V/D409V mice
Description: Gba1^D409V/D409V mice (harboring a point mutation at residue 409 in the murine Gba1 gene) were bred under a protocol approved by the Institutional Animal Care and Use Committee. Treatments were administered as described and the animals were humanely sacrificed at pre-determined time points or upon reaching a humane endpoint.
A subset of Gba1^D409V/D409V mice received Compound 1 administered in food using a formulation calculated to provide 60 mg/kg/day. Drug administration was initiated when pups were weaned at 4 weeks of age and continued until euthanasia at 4 or 10 months of age. The concentration of Compound 1 in brain and liver tissues was determined by mass spectrometry (see e.g. Ramanathan et al. “The emergence of high-resolution MS as the premier analytical tool in the pharmaceutical bioanalysis arena” Bioanalysis. March 2012; 4(5):467-469).

protein tau aggregates = test: Hippocampal quantification of protein tau aggregates in A53T mice; details: 8 months of age, FIG. 14
Description: For histological analysis, mice were perfused with cold PBS. Brains were removed and post-fixed in 10% (v/v) neutral buffered formalin for 48 hours. Tissues were then placed in 30% sucrose, embedded and sectioned at 20 μm in a cryostat. Some tissues were pretreated with proteinase K (1:4 dilution; DAKO, Carpinteria, Calif.) for 7 minutes at room temperature to expose α-synuclein and other aggregated proteins. […] For α-synuclein aggregate quantification, a cyanine 3-tyramide signal amplification kit was used (PerkinElmer, Waltham, Mass.). […]
For morphometric analysis, sections were imaged with a SPOT camera (Diagnostic Instruments, Sterling Heights, Mich.) paired with a Nikon Eclipse E800 fluorescence microscope equipped with a 20λ objective lens. […] For ubiquitin and tau quantification, the same threshold was used for all images such that the aggregates were positively counted and the threshold area was recorded for each image in pixels. For α-synuclein quantification, each image was analyzed individually using a range of threshold values to quantify the area of the aggregates accurately and eliminate variable background signals. […] The percent threshold area was calculated and expressed as mean±SEM. […]

[8] = test system: symptomatic Gba1^D409V/D409V mice; test: NOR test in post-symptomatic Gba1^D409V/D409V mice; details: treatment from approximately 6 months of age, tested at 12 months, n=13, p<0.05; FIG. 16
Description: Gba1^D409V/D409V mice were bred and treated according to Example 24. Mice were fed the control diet or the Compound 1 diet as described in Example 24, except that drug administration was initiated when animals were approximately 6 months of age, and continued until euthanasia at 13 months of age.
Hippocampal memory was evaluated with the NOR test according to Example 25, except that the mice were tested at 6 months of age (before treatment) and again 6 months later, at 12 months of age (after treatment).

Gba1^D409V/D409V mice [9] = test: Novel object recognition (NOR) test in Gba1^D409V/D409V mice; details: 60 mg/kg/day in food from 4 weeks of age, tested at 3 months; FIG. 1
Description: as §1, §2
In the NOR test, […] wild type (WT) and Gba1^D409V/D409V mice were dosed with Compound 1 starting at 4 weeks of age and were subjected to the NOR test at 3 months (2 months post-treatment).
Mice were individually habituated to explore an open-field box for 5 minutes. During the first training session (T1), two identical objects were symmetrically placed into the open field 14 inches from each other. Animals were allowed to explore for 5 minutes. The number of investigations was recorded by a blinded investigator. After a 24 hour retention period, animals were tested (T2) for their recognition of a novel object. Mice were placed back into the open-field box for 5 minutes, and the time spent investigating the familiar and novel objects was recorded.
Statistical analyses were performed by Student's t-test or analysis of variance (ANOVA) followed by Newman-Keuls' post-hoc test. Preference for novelty was defined as investigating the novel object more than 50% of the time by a one-sample t-test. All statistical analyses were performed with GraphPad Prism v4.0 (GraphPad Software, San Diego, Calif.). Values of p<0.05 were considered significant.

[10] = in food, 60 mg/kg/day, mass spectrometry

Row | SMILES | accumulation of protein aggregates (ubiquitin, α-synuclein and/or protein tau) in the brains [1] | memory deficit (NOR and FC tests) (Gba1^D409V/D409V mice [2]) | FC test, contextual memory (freezing responses) ([3]; FIG. 4A) | FC test, cued memory ([3]; FIG. 4B) | accumulation of protein aggregates (ubiquitin, α-synuclein and/or protein tau) in the brains [4] | NOR test, target investigations of novel object during testing (T2) [5] | level of insoluble α-synuclein (human A53T-α-synuclein; SDS-soluble fraction, n=14, P<0.01, FIG. 11C) | level of cytosolic soluble α-synuclein (human A53T-α-synuclein; Tris-soluble fraction, n=14, P=0.17, FIG. 11A) | level of membrane-associated α-synuclein (human A53T-α-synuclein; Triton-soluble fraction, n=14, P<0.05, FIG. 11B) | FC test, contextual memory (freezing responses) (Gba1^D409V/D409V mice [6]; FIG. 2A) | FC test, cued memory (Gba1^D409V/D409V mice [6]; FIG. 2B) | concentration in the brain as percentage of the concentration in the liver ([7]; in food, 60 mg/kg/day) | tissue exposure in the cortex [7, 10] [ng/g tissue] | tissue exposure in the liver [7, 10] [ng/g tissue] | blood-brain barrier penetration ([7]; oral in food) | level of protein tau aggregates in hippocampus (protein tau aggregates) | NOR test, investigation of novel object during testing trial [8] | NOR test, target investigations of novel object during testing (T2) (Gba1^D409V/D409V mice [9])
1 | CC(C)(NC(=O)O[C@@H]1CN2CCC1CC2)c1csc(-c2ccc(F)cc2)n1 [Compound 2, (S)-quinuclidin-3-yl 2-(2-(4-fluorophenyl)thiazol-4-yl)propan-2-ylcarbamate] | measurable reduction | improve memory deficit |  |  |  |  |  |  |  |  |  |  |  |  |  |  |  | 
2 | CC(C)(NC(=O)OC1CN2CCC1CC2)c1cccc(-c2ccc(F)cc2)c1 (stereo not drawn) [Compound 1, 1-azabicyclo[2.2.2]oct-3-yl [2-(4′-fluorobiphenyl-3-yl)propan-2-yl]carbamate] |  |  | improved the freezing responses | only a marginal effect | measurable reduction | trend to reversal of their memory deficit | 81±3 % of the control value | 114±8 % of the control value | 75±8 % of the control value | improved the freezing responses | no effect | approximately 2% | 217±12 | 10512±603 | crosses the blood-brain barrier | significant reduction | recovered the ability to investigate the unfamiliar object | trend to reversal of their memory deficit
